Data taken from patent US20070093515A1, “Phosphodiesterase 10 inhibitors” (priority 2005, published 2007).

Molecular target: T1, mPDE10A7 (Mus musculus, UniProt Q8CA95)
T1 sequence (Q8CA95 446-763 limits assumed): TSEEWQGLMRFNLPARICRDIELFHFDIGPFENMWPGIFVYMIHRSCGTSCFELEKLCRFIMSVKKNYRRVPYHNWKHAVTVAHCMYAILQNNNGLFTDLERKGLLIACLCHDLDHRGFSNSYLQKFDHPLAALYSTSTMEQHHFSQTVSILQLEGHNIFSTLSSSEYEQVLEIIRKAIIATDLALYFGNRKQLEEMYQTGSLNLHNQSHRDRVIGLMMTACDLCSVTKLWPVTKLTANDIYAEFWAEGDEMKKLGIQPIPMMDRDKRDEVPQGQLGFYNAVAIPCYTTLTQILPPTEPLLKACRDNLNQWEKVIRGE
Assay: mPDE10A7 enzyme inhibition (IMAP fluorescence polarization, fluorescein labeled cAMP or cGMP)
Type: biochemical
Description: mPDE10A7 Enzyme Activity and Inhibition
To analyze the enzyme activity, 5 μL of serial diluted mPDE10A7 containing lysate were incubated with equal volumes of diluted (100-fold) fluorescein labeled cAMP or cGMP for 30 minutes in MDC HE 96-well assay plates at room temperature. Both the enzyme and the substrates were diluted in the following assay buffer: Tris/HCl (pH 8.0) 50 mM, MgCl2 5 mM, 2-mercaptoethanol 4 mM, BSA 0.33 mg/mL. After incubation, the reaction was stopped by adding 20 μL of diluted (400-fold) binding reagents and was incubated for an hour at room temperature. The plates were counted in an Analyst GT (Molecular Devices) for fluorescence polarization. An IMAP Assay kit (Molecular Device) was used to assess enzyme properties of mmPDE10A7. Data were analyzed with SoftMax Pro.
To check the inhibition profile, 10 μL of serial diluted compounds were incubated with 30 μl of diluted PDE enzymes in a 96-well polystyrene assay plate for 30 minutes at room temperature. After incubation, 5 μL of the compound-enzyme mixture were aliquoted into a MDC HE black plate, mixed with 5 μl of 100-fold diluted fluorescein labeled substrates (cAMP or cGMP), and incubated for 30 minutes at room temperature. The reaction was stopped by adding 20 μL of diluted binding reagents and counted in an Analyst GT for fluorescence polarization. The data were analyzed with SoftMax Pro.

For COCCOc1cccc2c1CCN(c1ncnc3cc(OC)c(OC)cc13)C2=O [2-(6,7-dimethoxyquinazolin-4-yl)-5-(2-methoxyethoxy)-3,4-dihydroisoquinoline-1 (2H)-one], the IC50 was 219 nM.
